Experiments:
Assay type in all cases: ADME, organism-based
[1] = Drug concentration in Alveolar macrophage of healthy human at 500 mg, po administered as single dose after 24 hrs; conditions: alveolar macrophages, read-out: Drug uptake
[2] = Drug concentration in Epithelial lining fluid of healthy human at 500 mg, po administered as single dose after 24 hrs; conditions: read-out: Drug uptake
Homo sapiens [3] = experiment: Half life in high-fat fed healthy human plasma assessed as EDP-420 9-keto level at 200 mg, po administered as single dose of two-100 mg capsules; conditions: in vivo
Homo sapiens [4] = experiment: AUC (0 to last) in healthy human plasma assessed as EDP-420 9-keto level at 200 mg, po once daily for 3 days measured after 3 days; set-up: dose 200 mg, time 0 - last, route oral; conditions: in vivo, 72 h
Homo sapiens [5] = experiment: Half life in 8 hrs fasted healthy human plasma assessed as EDP-420 9-keto level at 200 mg, po administered as single dose of suspension; conditions: in vivo
Homo sapiens [6] = experiment: AUC (0 to last) in healthy human plasma assessed as EDP-420 9-keto level at 200 mg, po once daily for 3 days measured after 1 day; set-up: dose 200 mg, time 0 - last, route oral; conditions: in vivo, 24 h
Homo sapiens [7] = experiment: Half life in 8 hrs fasted healthy human plasma assessed as EDP-420 9-keto level at 200 mg, po administered as single dose of two-100 mg capsules; conditions: in vivo
Homo sapiens [8] = experiment: Cmax in healthy human plasma assessed as EDP-420 9-keto level at loading dose of 400 mg/day, po once daily for 3 days measured after 1 day by HPLC-tandem mass spectrometry; set-up: dose 400 mg/day, route oral; conditions: in vivo, 24 h
Homo sapiens [9] = experiment: Cmax in 8 hrs fasted healthy human plasma assessed as EDP-420 9-keto level at 200 mg, po administered as single dose of two-100 mg capsules by HPLC-tandem mass spectrometry; set-up: dose 200 mg, route oral; conditions: in vivo
Homo sapiens [10] = experiment: AUC (0 to last) in 8 hrs fasted healthy human plasma assessed as EDP-420 9-keto level at 200 mg, po administered as single dose of two-100 mg capsules; set-up: dose 200 mg, time 0 - last, route oral; conditions: in vivo
Homo sapiens [11] = experiment: Cmax in healthy human plasma assessed as EDP-420 9-keto level at 200 mg, po once daily for 3 days measured after 3 days by HPLC-tandem mass spectrometry; set-up: dose 200 mg, route oral; conditions: in vivo, 72 h
Homo sapiens [12] = experiment: Tmax in 8 hrs fasted healthy human plasma assessed as EDP-420 9-keto level at 200 mg, po administered as single dose of two-100 mg capsules; conditions: in vivo
Homo sapiens [13] = experiment: AUC (0 to infinity) in healthy human plasma assessed as EDP-420 9-keto level at 400 mg administered once on day 1 followed by 200 mg once daily for 2 days during 3 days of treatment measured after 3 days; set-up: dose 400 mg, time infinity; conditions: in vivo, 72 h
Homo sapiens [14] = experiment: Ratio of AUC (0 to 24 hrs) in healthy human plasma assessed as EDP-420 9-keto level at loading dose of 400 mg/day, po administered as single dose measured on 1 day to AUC (0 to 24 hrs) in healthy human plasma assessed as EDP-420 9-keto level at 400 mg administered once on day 1 followed by 200 mg once daily for 2 days during 3 days of treatment measured on day 3; conditions: in vivo
Homo sapiens [15] = experiment: Tmax in healthy human plasma assessed as EDP-420 9-keto level at 200 mg, po once daily for 3 days measured after 1 day; conditions: in vivo, 24 h
Homo sapiens [16] = experiment: Ratio of drug concentration in high-fat fed healthy human plasma at 200 mg, po administered as single dose of two-100 mg capsules to drug concentration in high-fat fed healthy human plasma assessed as EDP-420 9-keto level at 200 mg, po administered as single dose of two-100 mg capsules; conditions: in vivo
Homo sapiens [17] = experiment: AUC (0 to infinity) in 8 hrs fasted healthy human plasma assessed as EDP-420 9-keto level at 200 mg, po administered as single dose of suspension; set-up: dose 200 mg, time infinity, route oral; conditions: in vivo
Homo sapiens [18] = experiment: Half life in healthy human plasma assessed as EDP-420 9-keto level at 200 mg, po administered as once daily for 3 days measured after 3 days; conditions: in vivo, 72 h
Homo sapiens [19] = experiment: AUC (0 to infinity) in 8 hrs fasted healthy human plasma assessed as EDP-420 9-keto level at 200 mg, po administered as single dose of two-100 mg capsules; set-up: dose 200 mg, time infinity, route oral; conditions: in vivo
Homo sapiens [20] = experiment: Tmax in healthy human plasma assessed as EDP-420 9-keto level at loading dose of 400 mg/day, po once daily for 3 days measured after 1 day; conditions: in vivo, 24 h
Homo sapiens [21] = experiment: Cmax in high-fat fed healthy human plasma assessed as EDP-420 9-keto level at 200 mg, po administered as single dose of two-100 mg capsules by HPLC-tandem mass spectrometry; set-up: dose 200 mg, route oral; conditions: in vivo
Homo sapiens [22] = experiment: Cmax in healthy human plasma assessed as EDP-420 9-keto level at 200 mg, po once daily for 3 days measured after 1 day by HPLC-tandem mass spectrometry; set-up: dose 200 mg, route oral; conditions: in vivo, 24 h
Homo sapiens [23] = experiment: Cmax in healthy human plasma assessed as EDP-420 9-keto level at 400 mg administered once on day 1 followed by 200 mg once daily for 2 days during 3 days of treatment measured after 3 days by HPLC-tandem mass spectrometry; set-up: dose 400 mg; conditions: in vivo, 72 h
Homo sapiens [24] = experiment: Ratio of drug concentration in 8 hrs fasted healthy human plasma at 200 mg, po administered as single dose of suspension to drug concentration in 8 hrs fasted healthy human plasma assessed as EDP-420 9-keto level at 200 mg, po administered as single dose of suspension; conditions: in vivo
Homo sapiens [25] = experiment: AUC (0 to infinity) in healthy human plasma assessed as EDP-420 9-keto level at 200 mg, po once daily for 3 days measured after 3 days; set-up: dose 200 mg, time infinity, route oral; conditions: in vivo, 72 h
Homo sapiens [26] = experiment: AUC (0 to last) in high-fat fed healthy human plasma assessed as EDP-420 9-keto level at 200 mg, po administered as single dose of two-100 mg capsules; set-up: dose 200 mg, route oral, time 0 - last; conditions: in vivo
Homo sapiens [27] = experiment: AUC (0 to last) in healthy human plasma assessed as EDP-420 9-keto level at 400 mg administered once on day 1 followed by 200 mg once daily for 2 days during 3 days of treatment measured after 3 days; set-up: dose 400 mg, time 0 - last; conditions: in vivo, 72 h
Homo sapiens [28] = experiment: Cmax in 8 hrs fasted healthy human plasma assessed as EDP-420 9-keto level at 200 mg, po administered as single dose of suspension by HPLC-tandem mass spectrometry; set-up: dose 200 mg, route oral; conditions: in vivo
Homo sapiens [29] = experiment: AUC (0 to last) in 8 hrs fasted healthy human plasma assessed as EDP-420 9-keto level at 200 mg, po administered as single dose of suspension; set-up: dose 200 mg, time 0 - last, route oral; conditions: in vivo
Homo sapiens [30] = experiment: Tmax in high-fat fed healthy human plasma assessed as EDP-420 9-keto level at 200 mg, po administered as single dose of two-100 mg capsules; conditions: in vivo
Homo sapiens [31] = experiment: Half life in healthy human plasma assessed as EDP-420 9-keto level at 400 mg administered once on day 1 followed by 200 mg once daily for 2 days during 3 days of treatment measured after 3 days; conditions: in vivo, 72 h
Homo sapiens [32] = experiment: Tmax in 8 hrs fasted healthy human plasma assessed as EDP-420 9-keto level at 200 mg, po administered as single dose of suspension; conditions: in vivo
Homo sapiens [33] = experiment: Tmax in healthy human plasma assessed as EDP-420 9-keto level at 200 mg, po once daily for 3 days measured after 3 days; conditions: in vivo, 72 h
Homo sapiens [34] = experiment: Ratio of AUC (0 to 24 hrs) in healthy human plasma assessed as EDP-420 9-keto level at 200 mg, po once daily for 3 days measured on day 3 to AUC (0 to 24 hrs) in healthy human plasma assessed as EDP-420 9-keto level at 200 mg, po once daily for 3 days measured on day 1; conditions: in vivo
Homo sapiens [35] = experiment: AUC (0 to infinity) in high-fat fed healthy human plasma assessed as EDP-420 9-keto level at 200 mg, po administered as single dose of two-100 mg capsules; set-up: dose 200 mg, time infinity, route oral; conditions: in vivo

What does the source list for `CC[C@H]1OC(=O)[C@H](C)[C@@H](O[C@H]2C[C@@](C)(OC)[C@@H](O)[C@H](C)O2)[C@H](C)[C@@H](O[C@@H]2O[C@H](C)C[C@H](N(C)C)[C@H]2O)[C@](C)(O)C[C@@H](C)CN(C)[C@H](C)[C@@H](O)[C@]1(C)O` [AZITHROMYCIN]?
concentration at 24 h [1]: 30800 ng/mL; concentration at 24 h [2]: 90 ng/mL

For `CC[C@H]1OC(=O)[C@H](C)C(=O)[C@H](C)[C@@H](O[C@@H]2O[C@H](C)C[C@H](N(C)C)[C@H]2O)[C@@]2(C)C[C@@H](C)C(=O)[C@H](C)[C@@H](OC/C(=N\OCc3ccc(-n4cccn4)nc3)CO2)[C@]1(C)O`, which t1/2 (Homo sapiens [3]) is on record?
Its t1/2 is 28.4 h.

What about the AUC (Homo sapiens [4]) of the same compound?
Its AUC is 2134 ng·h/mL.

And the t1/2 (Homo sapiens [5])?
The t1/2 was 29.5 h.

And the AUC (Homo sapiens [6])?
Its AUC is 461 ng·h/mL.

What about the t1/2 (Homo sapiens [7]) of the same compound?
Its t1/2 is 30.5 h.

What about the Cmax (Homo sapiens [8]) of the same compound?
The Cmax was 49 ng/mL.

What about the Cmax (Homo sapiens [9]) of the same compound?
Its Cmax is 23.7 ng/mL.

What about the AUC (Homo sapiens [10]) of the same compound?
The AUC was 745 ng·h/mL.

And the Cmax (Homo sapiens [11])?
The Cmax was 46 ng/mL.

What about the Tmax (Homo sapiens [12]) of the same compound?
Its Tmax is 5 h.

What about the AUC (Homo sapiens [13]) of the same compound?
Its AUC is 2228 ng·h/mL.

What about the “Ratio AUC” value (Homo sapiens [14]) of the same compound?
Its value is 1.11.

And the Tmax (Homo sapiens [15])?
Its Tmax is 5 h.

And the Ratio (Homo sapiens [16])?
Its Ratio is 0.16.

And the AUC (Homo sapiens [17])?
The AUC was 842 ng·h/mL.

And the t1/2 (Homo sapiens [18])?
Its t1/2 is 29.5 h.

And the AUC (Homo sapiens [19])?
Its AUC is 837 ng·h/mL.

What about the Tmax (Homo sapiens [20]) of the same compound?
The Tmax was 5 h.

And the Cmax (Homo sapiens [21])?
Its Cmax is 36.1 ng/mL.

What about the Cmax (Homo sapiens [22]) of the same compound?
The Cmax was 30.5 ng/mL.

And the Cmax (Homo sapiens [23])?
Its Cmax is 47.6 ng/mL.

What about the Ratio (Homo sapiens [24]) of the same compound?
Its Ratio is 0.1.

And the AUC (Homo sapiens [25])?
The AUC was 2209 ng·h/mL.

And the AUC (Homo sapiens [26])?
Its AUC is 1220 ng·h/mL.

And the AUC (Homo sapiens [27])?
The AUC was 2154 ng·h/mL.

And the Cmax (Homo sapiens [28])?
Its Cmax is 24.9 ng/mL.

What about the AUC (Homo sapiens [29]) of the same compound?
The AUC was 754 ng·h/mL.

And the Tmax (Homo sapiens [30])?
Its Tmax is 6 h.

What about the t1/2 (Homo sapiens [31]) of the same compound?
The t1/2 was 27.8 h.

And the Tmax (Homo sapiens [32])?
The Tmax was 5 h.

And the Tmax (Homo sapiens [33])?
Its Tmax is 5 h.

What about the “Ratio AUC” value (Homo sapiens [34]) of the same compound?
The value was 1.76.

What about the AUC (Homo sapiens [35]) of the same compound?
Its AUC is 1326 ng·h/mL.
